From the NIST ThermoML archive (doi:10.1016/j.jct.2011.06.012)

Assay: xn = mol fraction of the nth substance listed
Settings: Liquid, Bellows volumetry

CC(C)C [2-methylpropane] + O=C=O
mass density [kg/m3]
Settings	280 K	300 K	320 K	340 K	360 K	380 K	400 K	420 K	440 K
3000 kPa, x2 = 0.2482	611.63	–	–	–	–	–	–	–	–
3000 kPa, x2 = 0.4718	651.84	–	–	–	–	–	–	–	–
5000 kPa, x2 = 0.2482	615.96	–	552.16	–	–	–	–	–	–
5000 kPa, x2 = 0.4718	658.57	614.91	560.46	–	–	–	–	–	–
5000 kPa, x2 = 0.7506	741.3	–	–	–	–	–	–	–	–
10000 kPa, x2 = 0.2482	625.46	–	569.21	–	501.22	–	408.28	–	–
10000 kPa, x2 = 0.4718	672.04	634.66	592.64	543.45	481.3	–	–	–	–
10000 kPa, x2 = 0.7506	765.85	–	614.39	–	–	–	–	–	–
20000 kPa, x2 = 0.2482	641.52	–	593.88	–	542.86	–	486.62	–	428.1
20000 kPa, x2 = 0.4718	693.75	662.67	630.32	596.56	560.5	521.68	481.65	441.54	402.95
20000 kPa, x2 = 0.7506	800.45	–	697.56	–	574.95	–	–	–	–
30000 kPa, x2 = 0.2482	655.06	–	611.98	–	568.79	–	523.46	–	479.05
30000 kPa, x2 = 0.4718	710.92	683.38	655.66	627.77	598.86	568.93	539.19	509.95	481.23
30000 kPa, x2 = 0.7506	826.02	–	740.51	–	649.75	–	557.06	–	473.55
40000 kPa, x2 = 0.2482	665.95	–	627.15	–	588.52	–	548.72	–	511.07
40000 kPa, x2 = 0.4718	725.26	700.1	675.36	650.8	625.7	600.05	574.86	550.57	526.82
40000 kPa, x2 = 0.7506	846.38	–	771.26	–	694.72	–	618.58	–	548.5
50000 kPa, x2 = 0.2482	676.07	–	639.69	–	604.55	–	568.35	–	534.44
50000 kPa, x2 = 0.4718	737.44	714.21	691.66	669.07	646.76	623.65	601.24	579.87	559.05
50000 kPa, x2 = 0.7506	863.38	–	795.16	–	727.44	–	660.8	–	599.76
60000 kPa, x2 = 0.2482	684.83	–	650.61	–	617.73	–	584.33	–	553.6
60000 kPa, x2 = 0.4718	748.54	726.58	705.67	684.42	664.02	642.83	622.39	602.9	584.01
60000 kPa, x2 = 0.7506	878.75	–	815.43	–	753.47	–	693.37	–	637.87
70000 kPa, x2 = 0.2482	693.01	–	660.32	–	629.43	–	598.36	–	569.47
70000 kPa, x2 = 0.4718	758.63	737.54	717.84	697.86	678.79	658.77	640.1	622.11	604.56
70000 kPa, x2 = 0.7506	892.04	–	832.58	–	775.21	–	719.26	–	668.37
80000 kPa, x2 = 0.2482	700.46	–	669.23	–	639.78	–	610.26	–	583.24
80000 kPa, x2 = 0.4718	767.66	747.72	728.73	709.95	691.87	672.89	655.36	638.65	622.24
80000 kPa, x2 = 0.7506	904.12	–	847.76	–	793.79	–	741.54	–	694.04
90000 kPa, x2 = 0.2482	707.4	–	677.43	–	649.26	–	620.93	–	595.28
90000 kPa, x2 = 0.4718	775.73	756.68	738.7	720.77	703.51	685.61	668.68	652.88	637.3
90000 kPa, x2 = 0.7506	915.3	–	861.33	–	810.34	–	760.76	–	716.21
100000 kPa, x2 = 0.2482	713.94	–	685.01	–	658	–	630.87	–	606.31
100000 kPa, x2 = 0.4718	783.73	764.82	748.11	730.63	714.09	697.01	680.77	665.6	650.87
100000 kPa, x2 = 0.7506	925.43	–	873.81	–	825.34	–	778	–	735.56
120000 kPa, x2 = 0.2482	725.79	–	698.63	–	673.4	–	647.91	–	625.43
120000 kPa, x2 = 0.4718	797.65	780.34	764.51	748.22	733.04	716.82	701.98	688.04	674.34
120000 kPa, x2 = 0.7506	944.22	–	895.88	–	851.1	–	807.55	–	768.56
140000 kPa, x2 = 0.2482	736.43	–	710.75	–	686.88	–	662.89	–	641.8
140000 kPa, x2 = 0.4718	810.05	794.03	778.96	764.19	749.43	734.35	720.03	707.29	694.6
140000 kPa, x2 = 0.7506	960.61	–	915.09	–	872.92	–	832.23	–	796.08
160000 kPa, x2 = 0.2482	746.22	–	721.58	–	699.29	–	675.97	–	656.01
160000 kPa, x2 = 0.4718	821.36	805.98	791.76	777.55	763.95	749.48	735.72	723.63	711.68
160000 kPa, x2 = 0.7506	975.64	–	932.24	–	892.29	–	854.07	–	819.85
180000 kPa, x2 = 0.2482	755.07	–	731.49	–	710.13	–	687.97	–	668.66
180000 kPa, x2 = 0.4718	831.97	817	803.87	790.06	777.13	763.2	749.97	738.5	726.86
180000 kPa, x2 = 0.7506	989.13	–	947.81	–	909.66	–	873.25	–	840.83
200000 kPa, x2 = 0.2482	763.28	–	740.45	–	720.21	–	698.66	–	680.35
200000 kPa, x2 = 0.4718	841.63	827.43	814.43	801.25	789.12	775.73	763.13	752.04	741.37
200000 kPa, x2 = 0.7506	1001.91	–	962.05	–	925.27	–	890.48	–	859.57
